How the values were obtained:
[1] = biological target: Myxococcus stipitatus imine reductase (MsIRED) variant MsIRED-c (best previously described NADH-dependent variant, 5 residue substitutions) (Myxococcus stipitatus, UniProt L7U9F5); test: Kinetics of MsIRED-c (best previously described NADH-dependent variant), 2-methylpyrroline reduction with NADH; assay type: biochemical; settings: cofactor NADH (0.25 mM); enzyme 1.2675 uM
AL cells = test: 1H NMR analysis of fermentation broth of anaerobic cultures; assay type: cell-based, Escherichia coli; settings: no exogenous substrate
[2] = tested on: LS1 strain (ΔadhE ΔldhA double mutant) cells; test: Metabolic complementation (anaerobic growth recovery) of LS1/AL strain; assay type: cell-based, Escherichia coli; settings: LS1, no exogenous substrate
Method: (§1) The LS1 mutant strain and the parental BW25113 strain were transformed with the desired plasmid and overnight pre-cultures were grown aerobically in 15 mL Falcon tubes with M9 media (0.4% glucose). These pre-cultures were used to inoculate 10 mL Hungate tubes with M9 medium (0.4% glucose) supplemented with 100 μg/mL ampicillin, 1 mM IPTG and with or without the specific substrate of the dehydrogenase under anaerobic conditions at 37° C. Metabolic complementation was assessed by measuring the optical density at 600 nm every two hours during daytime.

LS5 strain = test: Metabolic complementation (anaerobic growth) of quadruple mutant; assay type: cell-based, Escherichia coli
Method: as §1
Since in the triple mutants the non-deleted transhydrogenase could still be supporting anaerobic growth under anaerobic fermentation conditions when complemented with an NADPH-dependent oxidoreductase by generating oxidized NAD, the inventors generated a quadruple mutant where adhE, ldhA, sthA and pntA genes were deleted (LS5 strain, FIG. 11).

[3] = biological target: Enterobacter cloacae nitroreductase (EntNFSB) variant EntNFSB-s1, S40A/T41I/F124A, SEQ ID NO: 38 (Enterobacter cloacae, UniProt Q01234, F124A/S40A/T41I); test: Kinetics of evolved EntNFSB-s1, 2-nitrobenzoic acid reduction with NADH; settings: cofactor NADH; enzyme 1 uM
Chain of Enterobacter cloacae nitroreductase (EntNFSB) variant EntNFSB-s1, S40A/T41I/F124A, SEQ ID NO: 38 (Q01234 whole entry S40A/T41I/F124A): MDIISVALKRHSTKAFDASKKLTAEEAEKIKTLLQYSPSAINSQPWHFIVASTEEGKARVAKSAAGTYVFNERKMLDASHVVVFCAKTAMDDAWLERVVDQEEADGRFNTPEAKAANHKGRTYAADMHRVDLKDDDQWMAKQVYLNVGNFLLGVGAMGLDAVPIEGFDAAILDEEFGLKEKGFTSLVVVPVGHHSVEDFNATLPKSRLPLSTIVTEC

[4] = biological target: Enterobacter cloacae nitroreductase (EntNFSB) variant EntNFSB-s2, T41L/Y68L/F124L, SEQ ID NO: 40 (Enterobacter cloacae, UniProt Q01234, F124L/T41L/Y68L); assay type: biochemical; settings: cofactor NADH; enzyme 1 uM
Chain of Enterobacter cloacae nitroreductase (EntNFSB) variant EntNFSB-s2, T41L/Y68L/F124L, SEQ ID NO: 40 (Q01234 whole entry T41L/Y68L/F124L): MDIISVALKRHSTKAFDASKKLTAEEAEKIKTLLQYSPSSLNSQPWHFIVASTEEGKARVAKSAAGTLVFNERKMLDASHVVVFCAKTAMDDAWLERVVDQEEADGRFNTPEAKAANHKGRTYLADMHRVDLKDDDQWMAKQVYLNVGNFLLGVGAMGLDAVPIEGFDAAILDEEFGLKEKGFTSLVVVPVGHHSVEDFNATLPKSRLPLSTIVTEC

CC1=NCCC1 [2-methylpyrroline, 2-methyl-1-pyrroline]
Km [1]: 41.8 mM
kcat [1]: 1.993 s⁻¹

pLS1: pUC19 with ADH NADH-dependent from Escherichia coli (adhE)
Acetate concentration (AL cells): 12.1
Ethanol concentration (AL cells): 13.8
Formate concentration (AL cells): 20.7
Lactate concentration (AL cells): 0
Succinate concentration (AL cells): 5.2
anaerobic growth recovery [2]: restoration of ability to grow anaerobically
anaerobic growth (LS5 strain): anaerobic growth is restored

O=C(O)c1ccccc1[N+](=O)[O-] [2-nitrobenzoic acid]
kcat [3]: 0.0195 s⁻¹

O=[N+]([O-])c1ccc(CO)cc1 [4-nitrobenzyl alcohol]
Km [4]: 1.11 mM
kcat [4]: 0.0725 s⁻¹
